From patent US10800778B2 (Entasis Therapeutics Limited, priority 2016, dated 2020)
Where a name gives a salt, the structure may show the parent alone.

Key:
[1] = Stability/conversion of esters in human intestinal S9; assay type: in vitro ADME
Experimental: (§1) The human intestinal S9 with the absence of PMSF, human liver S9, rat intestinal S9, and rat liver S9 preparations were obtained from Xenotech (Lenexa, Kans.). The 500-μL incubation solution contained 0.8 mg/mL of enzyme (or no enzyme for buffer stability), 10 μM of test compounds in 100 mM of HEPES buffer, pH 7.4. The hydrolysis reactions were conducted in a 1-mL glass insert (Analytical Sales, Pompton Plains, N.J.) in a shake water bath at 37° C. At 0, 2, 5, 10, 15, 30 and 60 min, the reaction was terminated by pipetting 50 μL incubate to a 96 DeepWell plate (Thermo Fisher Scientific, Rochester, N.Y.) containing 100 μL of acetonitrile with 250 ng/mL of Carbutamide (Sigma-Aldrich, St. Louis, Miss.) as the internal standard. The crashed solutions were then vortexed well followed by centrifuge at 4000 rpm for 15 min at 4° C. The extract was transferred to a new 96 DeepWell plate for LC-MS/MS analysis.
(§2) LC-MS/MS analysis was done using an AB Sciex QTrap 6500 mass spectrometer under positive ionization mode, coupled to a Schimadzu Nexera LC system.
(§3) A Waters Atlantis T3 (3 μm, 3.0×50 mm) column was used for separation. The mobile phase consisted 0.1% formic acid in water (A) and 0.1% formic acid in acetonitrile (B) with a flow rate set at 1.2 mL/min. For the prodrug analysis, the Multiple Reaction Monitoring (MRM) specific for each compound was set up so that both prodrug and its hydrolyzed active can be monitored simultaneously.
(§4) Half-lives listed are based on disappearance of starting ester.

[2] = Stability/conversion of esters in human liver S9; assay type: in vitro ADME
Experimental: as §1, §2, §3, §4

[3] = Stability/conversion of esters in rat liver S9; assay type: in vitro ADME
Experimental: as §1, §2, §3, §4

[4] = Stability/conversion of esters in rat intestinal S9; assay type: in vitro ADME
Experimental: as §1, §2, §3, §4

[5] = Stability in pH 7.4 buffer (no enzyme); assay type: physicochemical; settings: read-out: T1/2 pH 7.4 Buffer
Experimental: as §1, §2, §3, §4

[6] = s9, pH 7.4, read-out: T1/2 Human Intestinal S9
[7] = s9, pH 7.4, read-out: T1/2 Human Liver S9
[8] = s9, pH 7.4, read-out: T1/2 Rat Liver S9
[9] = s9, pH 7.4, read-out: T1/2 Rat Intestinal S9
[10] = intestinal S9 (without PMSF), pH 7.4, read-out: T1/2 Human Intestinal S9
[11] = liver S9, pH 7.4, read-out: T1/2 Human Liver S9
[12] = liver S9, pH 7.4, read-out: T1/2 Rat Liver S9
[13] = intestinal S9, pH 7.4, read-out: T1/2 Rat Intestinal S9

Row | SMILES | half-life at 10 μM [1, 6] | half-life at 10 μM [2, 7] | half-life at 10 μM [3, 8] | half-life at 10 μM [4, 9] | half-life at 10 μM ([5]; buffer) | half-life at 10 μM [1, 10] | half-life at 10 μM [2, 11] | half-life at 10 μM [3, 12] | half-life at 10 μM [4, 13] | half-life at 10 μM ([5]; HEPES buffer without enzyme)
1 | CCOC(=O)[C@@H](F)ON1C(=O)N2C[C@H]1C=C(C)[C@H]2C(N)=O [Example 1, (R)-ethyl 2-((2S,5R)-2-carbamoyl-3-methyl-7-oxo-1,6-diazabicyclo[3.2.1]oct-3-en-6-yloxy)-2-fluoroacetate] | 38 min | 6.5 min | 4.4 min | 39 min | 41 min | – | – | – | – | –
2 | CCOC(=O)[C@@H](F)ON1C(=O)N2C[C@H]1C=C(C)[C@H]2C(=O)NCO [Example 86, ethyl (2R)-2-fluoro-2-[[(2S,5R)-2-(hydroxymethylcarbamoyl)-3-methyl-7-oxo-1,6-diazabicyclo[3.2.1]oct-3-en-6-yl]oxy]acetate] | – | – | – | – | – | 36 min | 24 min | 23 min | 43 min | 39 min
3 | CCOC(=O)[C@@H](F)ON1C(=O)N2C[C@H]1C(C)=C[C@H]2C(N)=O [Example 31, (2R)-ethyl 2-(((2S,5R)-2-carbamoyl-4-methyl-7-oxo-1,6-diazabicyclo[3.2.1]oct-3-en-6-yl)oxy)-2-fluoroacetate] | 35 min | 27 min | 20 min | 42 min | 44 min | – | – | – | – | –
4 | CC1=C[C@@H]2CN(C(=O)N2O[C@H](F)C(=O)OCOC(=O)C(C)(C)C)[C@@H]1C(N)=O [Example 64, [(2R)-2-[[(2S,5R)-2-carbamoyl-3-methyl-7-oxo-1,6-diazabicyclo[3.2.1]oct-3-en-6-yl]oxy]-2-fluoro-acetyl]oxymethyl 2,2-dimethylpropanoate] | – | – | – | – | – | < 1 min | < 1 min | < 1 min | 1.1 min | 1.2 min
5 | CCOC(=O)[C@H](F)ON1C(=O)N2C[C@H]1C=C(C)[C@H]2C(N)=O [Example 2, (S)-ethyl 2-((2S,5R)-2-carbamoyl-3-methyl-7-oxo-1,6-diazabicyclo[3.2.1]oct-3-en-6-yloxy)-2-fluoroacetate] | 21 min | 1.9 min | 1.4 min | 24 min | 29 min | – | – | – | – | –
6 | CC1=C[C@@H]2CN(C(=O)N2O[C@H](F)C(=O)OC(C)OC(=O)OC(C)C)[C@@H]1C(N)=O (stereo partly drawn) [Example 53, 1-isopropoxycarbonyloxyethyl (2R)-2-[[(2S,5R)-2-carbamoyl-3-methyl-7-oxo-1,6-diazabicyclo[3.2.1]oct-3-en-6-yl]oxy]-2-fluoro-acetate] | – | – | – | – | – | < 1 min | 1.7 min | 2 min | 4.2 min | 4.8 min
7 | CC1=C[C@@H]2CN(C(=O)N2O[C@H](F)C(=O)OC(C(C)C)C(C)C)[C@@H]1C(N)=O [Example 15, 2,4-dimethylpentan-3-yl (2R)-{[(2S,5R)-2-carbamoyl-3-methyl-7-oxo-1,6-diazabicyclo[3.2.1]oct-3-en-6-yl]oxy}(fluoro)ethanoate] | – | – | – | – | – | > 100 min | 12.4 min | 1.5 min | > 100 min | 98 min
8 | CCOC(=O)C(F)(F)ON1C(=O)N2C[C@H]1C=C(C)[C@H]2C(N)=O [Example 7, ethyl {[(2S,5R)-2-carbamoyl-3-methyl-7-oxo-1,6-diazabicyclo[3.2.1]oct-3-en-6-yl]oxy}(difluoro)acetate] | – | – | – | – | – | 2.4 min | 0.8 min | 0.5 min | 3.9 min | 3.9 min
9 | CC1=C[C@@H]2CN(C(=O)N2O[C@H](F)C(=O)Oc2ccc3c(c2)CCC3)[C@@H]1C(N)=O [Example 65, indan-5-yl (2R)-2-[[(2S,5R)-2-carbamoyl-3-methyl-7-oxo-1,6-diazabicyclo[3.2.1]oct-3-en-6-yl]oxy]-2-fluoro-acetate] | – | – | – | – | – | < 1 min | < 1 min | < 1 min | 1.3 min | 1.7 min
10 | CC1=C[C@@H](C(N)=O)N2C[C@@H]1N(OCC(=O)OC(C)C)C2=O [Example 96, isopropyl 2-(((2S,5R)-2-carbamoyl-4-methyl-7-oxo-1,6-diazabicyclo[3.2.1]oct-3-en-6-yl)oxy)acetate] | – | – | – | – | – | 1480 min | 57 min | 10.3 min | 211 min | > 100 min
11 | CCCCCCOC(=O)[C@@H](F)ON1C(=O)N2C[C@H]1C=C(C)[C@H]2C(N)=O [Example 52, hexyl (2R)-2-[[(2S,5R)-2-carbamoyl-3-methyl-7-oxo-1,6-diazabicyclo[3.2.1]oct-3-en-6-yl]oxy]-2-fluoro-acetate] | – | – | – | – | – | 5.7 min | 0.84 min | 0.45 min | 39 min | 76 min
12 | CC1=C[C@@H]2CN(C(=O)N2O[C@H](F)C(=O)OCc2ccccc2)[C@@H]1C(N)=O [Example 54, (2R)-benzyl 2-(((2S,5R)-2-carbamoyl-3-methyl-7-oxo-1,6-diazabicyclo[3.2.1]oct-3-en-6-yl)oxy)-2-fluoroacetate] | 5 min | 1.9 min | 0.9 min | 19 min | 22 min | – | – | – | – | –
13 | CCCCCOC(=O)[C@@H](F)ON1C(=O)N2C[C@H]1C=C(C)[C@H]2C(N)=O [Example 51, pentyl (2R)-2-[[(2S,5R)-2-carbamoyl-3-methyl-7-oxo-1,6-diazabicyclo[3.2.1]oct-3-en-6-yl]oxy]-2-fluoro-acetate] | – | – | – | – | – | 1.5 min | 6.4 min | 1.7 min | 4.1 min | 75 min
14 | COCCOC(=O)[C@@H](F)ON1C(=O)N2C[C@H]1C=C(C)[C@H]2C(N)=O [Example 18, 2-methoxyethyl (2R)-{[(2S,5R)-2-carbamoyl-3-methyl-7-oxo-1,6-diazabicyclo[3.2.1]oct-3-en-6-yl]oxy}(fluoro)ethanoate] | – | – | – | – | – | 15 min | 9.2 min | 7 min | 16 min | 18 min
15 | CCOC(=O)[C@H](F)ON1C(=O)N2C[C@H]1C=C(C)[C@H]2C(=O)NOC[C@@H]1CCCN1 [Example 60, ethyl (2S)-2-fluoro-2-(((2S,5R)-3-methyl-7-oxo-2-((((S)-pyrrolidin-2-yl)methoxy)carbamoyl)-1,6-diazabicyclo[3.2.1]oct-3-en-6-yl)oxy)acetate TFA salt] | – | – | – | – | – | 22 min | 9.9 min | 10 min | 21 min | 29 min
16 | CCOC(=O)CON1C(=O)N2C[C@H]1C(C)=C[C@H]2C(N)=O [Example 92, ethyl 2-(((2S,5R)-2-carbamoyl-4-methyl-7-oxo-1,6-diazabicyclo[3.2.1]oct-3-en-6-yl)oxy)acetate] | – | – | – | – | – | 193 min | 24.8 min | 11 min | 397 min | 161 min
17 | CCCOC(=O)[C@@H](F)ON1C(=O)N2C[C@H]1C=C(C)[C@H]2C(N)=O [Example 48, propyl (2R)-2-[[(2S,5R)-2-carbamoyl-3-methyl-7-oxo-1,6-diazabicyclo[3.2.1]oct-3-en-6-yl]oxy]-2-fluoro-acetate] | – | – | – | – | – | 42 min | 6.1 min | 3 min | 50 min | 62 min
18 | CCCCOC(=O)[C@@H](F)ON1C(=O)N2C[C@H]1C=C(C)[C@H]2C(N)=O [Example 50, butyl (2R)-2-[[(2S,5R)-2-carbamoyl-3-methyl-7-oxo-1,6-diazabicyclo[3.2.1]oct-3-en-6-yl]oxy]-2-fluoro-acetate] | – | – | – | – | – | 73 min | 3.5 min | 2.8 min | 30 min | 120 min
19 | CCOC(=O)C(F)(F)ON1C(=O)N2C[C@H]1C(C)=C[C@H]2C(N)=O [Example 90, ethyl 2-(((2S,5R)-2-carbamoyl-4-methyl-7-oxo-1,6-diazabicyclo[3.2.1]oct-3-en-6-yl)oxy)-2,2-difluoroacetate] | – | – | – | – | – | 1 min | 0.7 min | 0.7 min | 3.3 min | 2.9 min
20 | CCOC(=O)[C@H](F)ON1C(=O)N2C[C@H]1C=C(C)[C@H]2C(=O)NCO [Example 85, ethyl (2S)-2-fluoro-2-[[(2S,5R)-2-(hydroxymethylcarbamoyl)-3-methyl-7-oxo-1,6-diazabicyclo[3.2.1]oct-3-en-6-yl]oxy]acetate] | – | – | – | – | – | 20 min | 3.5 min | 3.8 min | 21 min | 26 min
